Reference: the NIST ThermoML archive (doi:10.1021/je700202h)
Numbers after ± are expanded uncertainties.

Details: 101.33 kPa, Liquid

SMILES	mass density (293.15 K) [kg/m3]	viscosity (293.15 K) [mPa·s]	mass density (298.15 K) [kg/m3]	viscosity (298.15 K) [mPa·s]	mass density (303.15 K) [kg/m3]	viscosity (303.15 K) [mPa·s]	mass density (308.15 K) [kg/m3]	viscosity (308.15 K) [mPa·s]	mass density (313.15 K) [kg/m3]	viscosity (313.15 K) [mPa·s]
CCCCCCC [heptane]	682.8 ± 0.7	0.4142 ± 0.0078	678.6 ± 0.8	0.3928 ± 0.0075	674.7 ± 0.8	0.3728 ± 0.0072	670.7 ± 0.9	0.3541 ± 0.007	665.6 ± 0.9	0.3374 ± 0.0067
CCCCCCCCC [nonane]	717.9 ± 0.9	0.7091 ± 0.012	714 ± 0.9	0.664 ± 0.012	710.8 ± 1	0.6217 ± 0.011	706.7 ± 1	0.5849 ± 0.011	702.8 ± 1.1	0.55 ± 0.01
